# Data as given in ChEMBL document CHEMBL3997802, “Design, Synthesis, and Evaluation of Isaindigotone Derivatives To Downregulate c-myc Transcription via Disrupting the Interaction of NM23-H2 with G-Quadruplex” (J Med Chem, 2017).
# Activity calls are given as the source filed them. The calls are words filed in the database; no cut-off is given here.
# How the values were obtained:
# Homo sapiens [1] = organism: Homo sapiens; test: Inhibition of NM23-H2 binding to c-Myc G-quadruplex DNA in human SiHa cells assessed as downregulation of c-Myc mRNA level after 4 days by RT-PCR method; assay type: cell-based
# [2] = Inhibition of thiazole orange binding to c-Myc Pu18 G-quadruplex DNA (unknown origin) at 10 uM after 30 secs by fluorescence spectrophotometric method
# [3] = Transrepression of c-Myc Pu43 G-quadruplex DNA (unknown origin) expressed in human SiHa cells after 48 hrs by luciferase reporter gene assay; assay type: cell-based
# SiHa [4] = test: Effect on NM23-H2 protein expression in human SiHa cells up to 8 uM after 4 days by Western blot method; assay type: functional, cell-based
# [5] = Effect on BRCA1 protein expression in mouse primary mesangial cells up to 8 uM by Western blot method; assay type: ADME, cell-based; conditions: primary mesangial cell
# Homo sapiens [6] = organism: Homo sapiens; test: Inhibition of NM23-H2 binding to c-Myc G-quadruplex DNA in human SiHa cells assessed as effect on p27Kip1 protein expression by Western blot method; assay type: cell-based
# [7] = Effect on c-Myc protein expression in mouse primary mesangial cells up to 8 uM by Western blot method; assay type: ADME, cell-based; conditions: primary mesangial cell
# [8] = biological target: Cellular tumor antigen p53 (Mus musculus, UniProt P02340); test: Effect on p53 phosphorylation in mouse primary mesangial cells up to 8 uM by Western blot method; assay type: ADME
# Sequence of Cellular tumor antigen p53 (P02340 whole entry): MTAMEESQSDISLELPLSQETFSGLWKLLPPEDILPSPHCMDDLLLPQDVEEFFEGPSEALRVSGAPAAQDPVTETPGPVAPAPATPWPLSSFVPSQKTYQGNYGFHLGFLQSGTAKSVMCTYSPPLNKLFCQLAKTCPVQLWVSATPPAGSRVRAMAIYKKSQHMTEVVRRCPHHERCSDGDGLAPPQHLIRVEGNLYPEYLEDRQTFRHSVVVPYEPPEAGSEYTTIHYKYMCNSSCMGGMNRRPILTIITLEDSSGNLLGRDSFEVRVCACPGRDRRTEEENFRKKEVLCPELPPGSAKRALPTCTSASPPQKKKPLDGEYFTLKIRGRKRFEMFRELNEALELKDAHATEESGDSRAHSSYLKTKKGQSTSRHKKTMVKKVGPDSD
# SiHa [9] = test: Growth inhibition of human SiHa cells transfected with NM23-H2 siRNA up to 16 uM after 100 hrs by real time cellular analysis; assay type: functional, cell-based
# [10] = Growth inhibition of mouse primary mesangial cells at 0.25 to 1 times cytotoxic IC50 after 100 hrs by real time cellular analysis; assay type: cell-based; conditions: primary mesangial cell
# Homo sapiens [11] = organism: Homo sapiens; test: Inhibition of NM23-H2 binding to c-Myc G-quadruplex DNA in human SiHa cells assessed as effect on cleaved caspase-3 protein expression by Western blot method; assay type: cell-based
# [12] = Inhibition of His-tagged NM23-H2 binding to 5'-biotin-labeled c-Myc Pu18 G-quadruplex DNA (unknown origin) after 10 mins by filter binding assay
# Homo sapiens [13] = organism: Homo sapiens; test: Inhibition of NM23-H2 binding to c-Myc G-quadruplex DNA in human SiHa cells assessed as effect on BRCA1 protein expression by Western blot method; assay type: cell-based
# [14] = Transrepression of c-Myc Pu43 G-quadruplex DNA (unknown origin) expressed in human SiHa cells at 8 uM after 48 hrs by luciferase reporter gene assay relative to control; assay type: cell-based
# [15] = Transrepression of c-Myc Pu43 G-quadruplex DNA (unknown origin) expressed in human SiHa cells at 6 uM after 48 hrs by luciferase reporter gene assay relative to control; assay type: cell-based
# [16] = Inhibition of thiazole orange binding to c-Myc Pu27 G-quadruplex DNA (unknown origin) at 10 uM after 30 secs by fluorescence spectrophotometric method
# [17] = Induction of G-quadruplex formation in wild type c-Myc Pu43 DNA (unknown origin) in pH 7.4 Tris HCl at 25 uM after overnight incubation in absence of Kcl by CD spectroscopic analysis
# Homo sapiens [18] = organism: Homo sapiens; test: Transrepression of c-Myc G-quadruplex DNA in human SiHa cells at 8 uM after 96 hrs by DAPI staining based immunofluoresence microscopic method; assay type: cell-based
# Homo sapiens [19] = organism: Homo sapiens; test: Inhibition of NM23-H2 binding to c-Myc G-quadruplex DNA in human SiHa cells assessed as effect on phosphorylated p53 protein expression by Western blot method; assay type: cell-based
# Homo sapiens [20] = organism: Homo sapiens; test: Inhibition of NM23-H2 binding to c-Myc G-quadruplex DNA in human SiHa cells assessed as effect on cyclin D3 protein expression by Western blot method; assay type: cell-based
# SiHa [21] = test: Effect on NM23-H2 mRNA level in human SiHa cells up to 8 uM after 4 days by RT-PCR method; assay type: functional, cell-based
# Homo sapiens [22] = organism: Homo sapiens; test: Inhibition of NM23-H2 binding to c-Myc G-quadruplex DNA in human SiHa cells assessed as effect on cleaved PARP protein expression by Western blot method; assay type: cell-based
# [23] = Transrepression of c-Myc MUT Pu43 DNA (unknown origin) expressed in human SiHa cells up to 8 uM after 48 hrs by luciferase reporter gene assay relative to control; assay type: cell-based
# [24] = Effect on CDK6 protein expression in mouse primary mesangial cells up to 8 uM by Western blot method; assay type: ADME, cell-based; conditions: primary mesangial cell
# [25] = Effect on NM23-H2 protein expression in mouse primary mesangial cells up to 8 uM by Western blot method; assay type: ADME, cell-based; conditions: primary mesangial cell
# Homo sapiens [26] = organism: Homo sapiens; test: Inhibition of NM23-H2 binding to c-Myc G-quadruplex DNA in human SiHa cells assessed as effect on p15 protein expression by Western blot method; assay type: cell-based
# [27] = Stabilization of 5'-FAM/3'-TAMRA labeled c-Myc Pu18 G-quadruplex DNA (unknown origin) assessed as change in melting temperature at 1 uM after overnight incubation by FRET assay
# SiHa [28] = test: Cytotoxicity against human SiHa cells assessed as reduction in cell viability up to 8 uM after 48 hrs by MTT assay; assay type: cell-based
# [29] = Effect on cleaved caspase-3 protein expression in mouse primary mesangial cells up to 8 uM by Western blot method; assay type: ADME, cell-based; conditions: primary mesangial cell
# Homo sapiens [30] = organism: Homo sapiens; test: Inhibition of NM23-H2 binding to c-Myc G-quadruplex DNA in human SiHa cells assessed as downregulation of c-Myc protein expression at 0.5 times cytotoxic IC50 after 4 days by Western blot method; assay type: cell-based
# Homo sapiens [31] = organism: Homo sapiens; test: Inhibition of NM23-H2 binding to c-Myc promoter DNA in human SiHa cell nuclear extract after 4 days by ChIP analysis
# [32] = Inhibition of 5'-biotin-labeled c-Myc Pu18 G-quadruplex DNA (unknown origin) interaction with His-tagged NM23-H2 assessed as ratio of Kd for NM23-H2-DNA complex in presence of compound to Kd for […]-DNA complex in absence of compound at 20 uM preincubated with NM23-H2 for 1 hr followed by addition of DNA measured after overnight incubation by ELISA
# SiHa [33] = test: Growth inhibition of human SiHa cells after 50 hrs by real time cellular analysis; assay type: functional, cell-based
# SiHa [34] = test: Inhibition of colony formation in human SiHa cells up to 4 uM after 7 days by crystal violet staining based assay; assay type: functional, cell-based
# [35] = Inhibition of His-tagged NM23-H2 binding to 5'-biotin-labeled c-Myc Pu18 ssDNA (unknown origin) after 10 mins by filter binding assay
# [36] = Inhibition of unwinding activity of His-tagged NM23-H2 to 5'-FAM/3'-TAMRA labeled c-Myc Pu18 G-quadruplex DNA (unknown origin) by FRET assay
# [37] = Transrepression of c-Myc Pu43 G-quadruplex DNA (unknown origin) expressed in human SiHa cells at 4 uM after 48 hrs by luciferase reporter gene assay relative to control; assay type: cell-based
compound,measurement,setting,value
O=C(NCCCN1CCCC1)c1ccc(/C=C2\CCn3c2nc2cc(NCCN4CCCC4)c(F)cc2c3=O)cc1,inhibition,Homo sapiens [1],Dose-dependent effect
same,inhibition,[2],Active
same,Activity,[3],Dose-dependent effect
same,Activity,SiHa [4],inactive
same,Activity,[5],Non-Toxic
same,inhibition,Homo sapiens [6],Dose-dependent effect
same,Activity,[7],Non-Toxic
same,Activity,[8],Non-Toxic
same,growth inhibition (GI),SiHa [9],inactive
same,growth inhibition (GI),[10],Non-Toxic
same,inhibition,Homo sapiens [11],Dose-dependent effect
same,inhibition,[12],Active
same,inhibition,Homo sapiens [13],Dose-dependent effect
same,Activity,[14],42.3%
same,Activity,[15],58.6%
same,inhibition,[16],Active
same,Activity,[17],Active
same,Activity,Homo sapiens [18],Active
same,inhibition,Homo sapiens [19],Dose-dependent effect
same,inhibition,Homo sapiens [20],Dose-dependent effect
same,Activity,SiHa [21],inactive
same,inhibition,Homo sapiens [22],Dose-dependent effect
same,Activity,[23],inactive
same,Activity,[24],Non-Toxic
same,Activity,[25],Non-Toxic
same,inhibition,Homo sapiens [26],Dose-dependent effect
same,ΔTm,[27],12.1 °C
same,Activity,SiHa [28],Non-Toxic
same,Activity,[29],Non-Toxic
same,inhibition,Homo sapiens [30],Active
same,inhibition,Homo sapiens [31],Dose-dependent effect
same,Ratio,[32],4.3
same,growth inhibition (GI),SiHa [33],Dose-dependent effect
same,inhibition,SiHa [34],Active
same,inhibition,[35],Active
same,inhibition,[36],Active
same,Activity,[37],73.4%
